Source: patent publication US20240279214A1, “ALPHA4 BETA7 INEGRIN ANTAGONISTS AND USES THEREOF” (XinThera, Inc., priority 2022, published 2024)
Read-outs that look alike come from different tables or passages of the source.

Settings: 13-membered ring

Molecule: CCOC(=O)C[C@@H]1NC(=O)C(n2cc(CCN3CC(F)C3)c(C(F)(F)F)cc2=O)c2cc(ccc2F)Oc2cccc(C)c2-c2cc(C(F)F)c(F)c1c2 (stereo in doubt)
- ring closure, isolated yield (from CCOC(=O)C[C@H](NC(=O)C(c1cc(Br)ccc1F)n1cc(CCN2CC(F)C2)c(C(F)(F)F)cc1=O)c1cc(-c2c(C)cccc2O)cc(C(F)F)c1F, ether bond, CuI/(1R,2R)-N1,N2-dimethylcyclohexane-1,2-diamine/K2CO3, 1,4-dioxane, 17.3 mM, 100.0 °C, 16.0 h): 50.2%

Molecule: CCOC(=O)C[C@@H]1NC(=O)C(n2cc(CCN3CC(F)C3)c(C(F)(F)F)cc2=O)c2cccc(c2)Oc2cccc(C)c2-c2cc(C3CC3)c(F)c1c2 (stereo partly drawn)
- ring closure, isolated yield (from CCOC(=O)C[C@H](NC(=O)C(c1cccc(Br)c1)n1cc(CCN2CC(F)C2)c(C(F)(F)F)cc1=O)c1cc(-c2c(C)cccc2O)cc(C2CC2)c1F, ether bond, CuI/(1R,2R)-N1,N2-dimethylcyclohexane-1,2-diamine/K2CO3, dioxane, 26.1 mM, 100.0 °C, 16.0 h): 82.3%

Molecule: CCOC(=O)C[C@@H]1NC(=O)C(n2cc(CCN3CC(F)C3)c(C(F)(F)F)cc2=O)c2cccc(c2)Oc2cccc(C)c2-c2cc(C)c(F)c1c2 (stereo in doubt)
- ring closure, isolated yield (from CCOC(=O)C[C@H](NC(=O)C(c1cccc(Br)c1)n1cc(CCN2CC(F)C2)c(C(F)(F)F)cc1=O)c1cc(-c2c(C)cccc2O)cc(C)c1F, ether bond, CuI/K2CO3, dioxane, 42.0 mM, 100.0 °C, 16.0 h): 33.4%

Molecule: CCOC(=O)C[C@@H]1NC(=O)C(n2cc(CCN3CC(F)C3)c(C(F)(F)F)cc2=O)c2cc(ccc2F)Oc2cccc(C)c2-c2cc1c(C)s2 (stereo partly drawn)
- ring closure, isolated yield (from CCOC(=O)C[C@H](NC(=O)C(c1cc(Br)ccc1F)n1cc(CCN2CC(F)C2)c(C(F)(F)F)cc1=O)c1cc(-c2c(C)cccc2O)sc1C, ether bond, CuI/K2CO3/(1R,2R)-N1,N2-dimethylcyclohexane-1,2-diamine, dioxane, 26.0 mM, 100.0 °C): 55.7%

Molecule: CCOC(=O)C[C@@H]1NC(=O)C(n2c(=O)c3ccncc3n(C)c2=O)c2cc(ccc2F)Oc2cccc(C)c2-c2cc(C)c(F)c1c2 (stereo partly drawn)
- ring closure, isolated yield (from CCOC(=O)C[C@H](NC(=O)C(c1cc(Br)ccc1F)n1c(=O)c2ccncc2n(C)c1=O)c1cc(-c2c(C)cccc2O)cc(C)c1F, ether bond, CuI/K2CO3/(1R,2R)-N1,N2-dimethylcyclohexane-1,2-diamine, 1,4-dioxane, 50.0 mM, 100.0 °C, 2.0 h): 82.6%

Molecule: ethyl 2-[(14S,17S)-14-{5-[3-(azetidin-1-yl) propyl]-2-oxo-4-(trifluoromethyl) pyridin-1-yl}-12,19-difluoro-3,20-dimethyl-15-oxo-8-oxa-16-azatetracyclo [16.3.1.1^{9,13}.0^{2,7}] tricosa-1(22),2(7),3,5,9,11,13(23),18,20-nonaen-17-yl] acetate
- ring closure, isolated yield (ether bond, CuI/K2CO3/(1R,2R)-N1,N2-dimethylcyclohexane-1,2-diamine, 1,4-dioxane, 46.7 mM, 100.0 °C): 62.8%

Molecule: CCOC(=O)C[C@@H]1NC(=O)C(n2ccc(C(F)(F)F)c(OC)c2=O)c2cc(ccc2F)Oc2cccc(C)c2-c2cc(C)c(F)c1c2 (stereo partly drawn)
- ring closure, isolated yield (from CCOC(=O)C[C@H](NC(=O)C(c1cc(Br)ccc1F)n1ccc(C(F)(F)F)c(OC)c1=O)c1cc(-c2c(C)cccc2O)cc(C)c1F, ether bond, CuI/(1S,2S)-N,N'-dimethylcyclohexane-1,2-diamine/K2CO3, 1,4-dioxane, 13.5 mM, 100.0 °C): 67.3%

Molecule: CCOC(=O)C[C@@H]1NC(=O)C(n2cc(CCN3CC(F)C3)c(C(F)(F)F)cc2=O)c2cc(ccc2F)Oc2cccc(C(F)(F)F)c2-c2cc(C)c(F)c1c2 (stereo in doubt)
- ring closure, isolated yield (from CCOC(=O)C[C@H](NC(=O)C(c1cc(Br)ccc1F)n1cc(CCN2CC(F)C2)c(C(F)(F)F)cc1=O)c1cc(-c2c(O)cccc2C(F)(F)F)cc(C)c1F, ether bond, CuI/K2CO3/N1,N2-dimethylcyclohexane-1,2-diamine, dioxane, 16.7 mM, 100.0 °C, 16.0 h): 66.7%

Molecule: ethyl 2-((5S,8S)-1^4,4^4-difluoro-5-(5-(2-(3-fluoroazetidin-1-yl)ethyl)-2-oxo-4-(trifluoromethyl)pyridin-1(2H)-yl)-2^6-methyl-6-oxo-3-oxa-7-aza-1,4(1,3),2(1,2)-tribenzenacyclooctaphane-8-yl)acetate
- ring closure, isolated yield (ether bond, CuI/K2CO3/(1R,2R)-N1,N2-dimethylcyclohexane-1,2-diamine, 1,4-dioxane, 52.0 mM, 100.0 °C): 74.2%

Molecule: CCOC(=O)C[C@@H]1NC(=O)C(n2cc(CCN3CC(F)C3)c(C(F)(F)F)cc2=O)c2cc(ccc2F)Oc2nn(CC3CC3)cc2-c2cc(C)c(F)c1c2 (stereo partly drawn)
- ring closure, isolated yield (from CCOC(=O)C[C@H](N)c1cc(-c2cn(CC3CC3)nc2Oc2ccc(F)c(C(C(=O)O)n3cc(CCN4CC(F)C4)c(C(F)(F)F)cc3=O)c2)cc(C)c1F, amide bond, EDCI/HOBt/DIEA, MeCN, 45.0 mM, 60.0 °C, 2.0 h): 14.6%

Molecule: CCOC(=O)C[C@@H]1NC(=O)C(n2cc(CCN3CC(F)C3)c(C(F)(F)F)cc2=O)c2cc(ccc2F)Oc2cccc(C)c2-c2cc(Cl)c(F)c1c2 (stereo in doubt)
- ring closure, isolated yield (from CCOC(=O)C[C@H](NC(=O)C(c1cc(Br)ccc1F)n1cc(CCN2CC(F)C2)c(C(F)(F)F)cc1=O)c1cc(-c2c(C)cccc2O)cc(Cl)c1F, ether bond, CuI/K2CO3/(1R,2R)-N1,N2-dimethylcyclohexane-1,2-diamine, 1,4-dioxane, 46.7 mM, 100.0 °C, 16.0 h): 64.9%

Molecule: CCOC(=O)C[C@@H]1NC(=O)C(n2cc(CCCN(C)C)c(C(F)(F)F)cc2=O)c2cc(ccc2F)Oc2cccc(C)c2-c2cc(C)c(F)c1c2 (stereo in doubt)
- ring closure, isolated yield (from CCOC(=O)C[C@H](NC(=O)C(c1cc(Br)ccc1F)n1cc(CCCN(C)C)c(C(F)(F)F)cc1=O)c1cc(-c2c(C)cccc2O)cc(C)c1F, ether bond, CuI/K2CO3/(1R,2R)-N1,N2-dimethylcyclohexane-1,2-diamine, 1,4-dioxane, 62.0 mM, 100.0 °C, 16.0 h): 55.6%

Molecule: CCOC(=O)C[C@@H]1NC(=O)C(n2cc(CCN3CC(F)C3)c(C(F)(F)F)cc2=O)c2cc(ccc2F)Oc2cc(C(F)(F)F)cc(C)c2-c2cc(C)c(F)c1c2 (stereo partly drawn)
- ring closure, isolated yield (from CCOC(=O)C[C@H](NC(=O)C(c1cc(Br)ccc1F)n1cc(CCN2CC(F)C2)c(C(F)(F)F)cc1=O)c1cc(-c2c(C)cc(C(F)(F)F)cc2O)cc(C)c1F, ether bond, CuI/K2CO3/(1R,2R)-N1,N2-dimethylcyclohexane-1,2-diamine, 1,4-dioxane, 30.0 mM, 100.0 °C, 16.0 h): 55%

Molecule: CCOC(=O)C[C@H](NC(=O)C(c1cc(Cl)cc(Br)c1)n1cc(CCN2CC(F)C2)c(C(F)(F)F)cc1=O)c1cc(-c2c(C)cccc2O)cc(C)c1F (stereo partly drawn)
- ring closure, isolated yield (the molecule shown is the open-chain precursor, ether bond, CuI/(1R,2R)-N1,N2-dimethylcyclohexane-1,2-diamine/K2CO3, dioxane, 15.0 mM, 100.0 °C): 66.5%

Molecule: CCOC(=O)C[C@@H]1NC(=O)C(n2cc(CCN3CC(F)C3)c(C(F)(F)F)cc2=O)c2cc(ccc2F)Oc2cc(F)cc(C)c2-c2cc(C)c(F)c1c2 (stereo in doubt)
- ring closure, isolated yield (from CCOC(=O)C[C@H](NC(=O)C(c1cc(Br)ccc1F)n1cc(CCN2CC(F)C2)c(C(F)(F)F)cc1=O)c1cc(-c2c(C)cc(F)cc2O)cc(C)c1F, ether bond, CuI/K2CO3/(1R,2R)-N1,N2-dimethylcyclohexane-1,2-diamine, dioxane, 30.0 mM, 100.0 °C, 16.0 h): 48.2%

Molecule: CCOC(=O)C[C@@H]1NC(=O)C(n2cc(CCN3CC(F)(F)C3)c(C(F)(F)F)cc2=O)c2cc(ccc2F)Oc2cccc(C)c2-c2cc(C)c(F)c1c2 (stereo partly drawn)
- ring closure, isolated yield (from CCOC(=O)C[C@H](NC(=O)C(c1cc(Br)ccc1F)n1cc(CCN2CC(F)(F)C2)c(C(F)(F)F)cc1=O)c1cc(-c2c(C)cccc2O)cc(C)c1F, ether bond, CuI/(1R,2R)-N1,N2-dimethylcyclohexane-1,2-diamine/K2CO3, 1,4-dioxane, 26.0 mM, 100.0 °C, 16.0 h): 50.3%

Molecule: CCOC(=O)C[C@H](NC(=O)C(c1cc(Cl)cc(Br)c1)n1cc(CCN2CC(F)C2)c(C(F)(F)F)cc1=O)c1cc(-c2c(C)cccc2O)cc(C(F)(F)F)c1F (stereo partly drawn)
- ring closure, isolated yield (the molecule shown is the open-chain precursor, ether bond, CuI/(1R,2R)-N1,N2-dimethylcyclohexane-1,2-diamine/K2CO3, dioxane, 19.0 mM, 100.0 °C): 56%

Molecule: CCOC(=O)C[C@@H]1NC(=O)C(n2cc(CCN3CC(F)C3)c(C(F)(F)F)cc2=O)c2cc(ccc2F)Oc2cccc(C)c2-c2cc(C)c(F)c1c2F (stereo partly drawn)
- ring closure, isolated yield (from CCOC(=O)C[C@H](NC(=O)C(c1cc(Br)ccc1F)n1cc(CCN2CC(F)C2)c(C(F)(F)F)cc1=O)c1c(F)c(C)cc(-c2c(C)cccc2O)c1F, ether bond, CuI/K2CO3/(1R,2R)-N1,N2-dimethylcyclohexane-1,2-diamine, 1,4-dioxane, 48.0 mM, 100.0 °C): 72%
